Test results reported in ChEMBL document CHEMBL4004873, “SAR of amino pyrrolidines as potent and novel protein-protein interaction inhibitors of the PRC2 complex through EED binding” (Bioorg Med Chem Lett, 2017).

Assays:
Polycomb protein EED [1] = target: T1, Polycomb protein EED (Homo sapiens, UniProt O75530); assay: Inhibition of OG(488) labeled probe binding to GST-tagged EED (unknown origin) after 1 hr by LanthaScreen TR-FRET assay
Liver = assay: Unbound intrinsic clearance in mouse liver microsomes at 0.5 uM by HPLC-MS/MS method; format: ADME, microsome
[2] = Intrinsic clearance in mouse liver microsomes at 0.5 uM by HPLC-MS/MS method; format: ADME, microsome; conditions: read-out: CLH
Polycomb protein EED [3] = target: T1, Polycomb protein EED; assay: Inhibition of EED in human G401 cells assessed as reduction in H3K27 trymethylation measured after 6 days by alphaLISA method; format: cell-based
Pfeiffer = assay: Antiproliferative activity against human Pfeiffer cells after 10 days by celltiter-glo luminescent cell viability Assay; format: functional, cell-based; conditions: 240 h
[4] = Permeability of the compound by PAMPA; format: physicochemical; conditions: read-out: permeability
Polycomb protein EED [5] = target: T1, Polycomb protein EED; assay: Inhibition of EED in human OCILY19 cells assessed as reduction in H3K27 trymethylation measured after 6 days by alphaLISA method; format: cell-based

T1 sequence (O75530 whole entry): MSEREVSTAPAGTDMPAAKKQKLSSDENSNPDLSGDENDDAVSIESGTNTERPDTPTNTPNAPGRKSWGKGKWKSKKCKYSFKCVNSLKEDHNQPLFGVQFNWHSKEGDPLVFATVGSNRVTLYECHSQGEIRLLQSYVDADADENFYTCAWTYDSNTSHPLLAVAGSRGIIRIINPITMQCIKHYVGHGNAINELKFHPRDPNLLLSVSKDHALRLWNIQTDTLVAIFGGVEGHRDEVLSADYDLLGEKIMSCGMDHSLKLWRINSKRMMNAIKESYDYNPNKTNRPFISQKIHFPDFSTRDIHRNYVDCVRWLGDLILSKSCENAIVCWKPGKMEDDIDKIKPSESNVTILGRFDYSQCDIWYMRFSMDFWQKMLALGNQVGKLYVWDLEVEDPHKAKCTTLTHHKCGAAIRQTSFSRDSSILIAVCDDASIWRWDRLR

With `Cc1cccc(F)c1CN1C[C@H](c2ccc(C3=CCN(C(=O)CS(C)(=O)=O)CC3)nc2)[C@@H](N(C)C)C1` (racemic) the Ki (Polycomb protein EED [1]) was 4.6 nM and the CL free (Liver) was 268 L/h/kg.

`CN(C)[C@H]1CN(Cc2ccccc2)C[C@@H]1c1cn(C)c2ccccc12` (racemic) gave a Ki (Polycomb protein EED [1]) of 1500 nM and a CLint scaled at 0.5 µM [2] of over 1000 L/h/kg.

Compound `Cc1cccc(F)c1CN1C[C@H](c2cn(C)c3ccccc23)[C@@H](N(C)C)C1` has an IC50 (Polycomb protein EED [3]) of 2400 nM, an IC50 (Pfeiffer) of 3300 nM and a Papp [4] of 1 to 3 ×10⁻⁶ cm/s. For the same compound, the IC50 (Polycomb protein EED [5]) was 2400 nM, the Ki (Polycomb protein EED [1]) was 12 nM and the CLint scaled at 0.5 µM [2] was over 1000 L/h/kg.

Work on `CN(C)[C@H]1CN([C@H]2CCCc3ccccc32)C[C@@H]1c1cn(C)c2ccccc12` (racemic) yielded a Ki (Polycomb protein EED [1]) of 78 nM.

Work on `Cc1ccc(F)c(CN2C[C@H](c3cn(C)c4ccccc34)[C@@H](N(C)C)C2)c1` (racemic) yielded a Ki (Polycomb protein EED [1]) of 160 nM and a CLint scaled at 0.5 µM [2] of over 1000 L/h/kg.

Work on `CN(C)[C@H]1CN([C@H]2CCc3cccc(F)c32)C[C@@H]1c1cn(C)c2ccccc12` yielded an IC50 (Polycomb protein EED [3]) of 290 nM, an IC50 (Pfeiffer) of 1100 nM and a Papp [4] of 1 to 3 ×10⁻⁶ cm/s. For the same compound, the IC50 (Polycomb protein EED [5]) was 660 nM, the Ki (Polycomb protein EED [1]) was 11 nM and the CLint scaled at 0.5 µM [2] was over 1000 L/h/kg.

`Cc1cccc(F)c1CN1C[C@H](c2ccccc2)[C@@H](N(C)C)C1` (racemic) gave a Ki (Polycomb protein EED [1]) of 56 nM and a CL free (Liver) of 1300 L/h/kg.

For `CN(C)[C@H]1CN(Cc2c(F)cccc2Br)C[C@@H]1c1ccncc1` (racemic), the Ki (Polycomb protein EED [1]) was 49 nM.

`CC(=O)N1CCN(c2ccc([C@H]3CN(Cc4c(C)cccc4F)C[C@@H]3N(C)C)cc2)CC1` (racemic) gave a Ki (Polycomb protein EED [1]) of 2.6 nM and a CL free (Liver) of 170 L/h/kg.

Compound `CC(=O)N1CCN(c2ccc([C@H]3CN(C4CCc5cccc(F)c54)C[C@@H]3N(C)C)cc2)CC1` (mixture of isomers) has an IC50 (Polycomb protein EED [3]) of 33 nM, an IC50 (Pfeiffer) of 33 nM and an IC50 (Polycomb protein EED [5]) of 50 nM. For the same compound, the Ki (Polycomb protein EED [1]) was 0.29 nM and the CL free (Liver) was 220 L/h/kg.

Compound `CN(C)[C@H]1CN(Cc2c(F)cccc2Br)C[C@@H]1c1cn(C)c2ccccc12` (racemic) has an IC50 (Polycomb protein EED [3]) of 4100 nM, an IC50 (Pfeiffer) of 9500 nM and a Papp [4] of 1 to 3 ×10⁻⁶ cm/s. It also gave an IC50 (Polycomb protein EED [5]) of 8300 nM, a Ki (Polycomb protein EED [1]) of 13 nM and a CLint scaled at 0.5 µM [2] of over 1000 L/h/kg.

Work on `Cc1cccc(F)c1CN1C[C@H](c2cn(C)c3c(N4CCN(C)C(=O)C4)cccc23)[C@@H](N(C)C)C1` (mixture of isomers) yielded an IC50 (Polycomb protein EED [3]) of 190 nM, an IC50 (Pfeiffer) of 98 nM and an IC50 (Polycomb protein EED [5]) of 100 nM. It also gave a Ki (Polycomb protein EED [1]) of 0.74 nM.

Work on `Cc1cccc(F)c1CN1C[C@H](c2cn(C)c3c(C(=O)N4CC(F)C4)cccc23)[C@@H](N(C)C)C1` (mixture of isomers) yielded an IC50 (Polycomb protein EED [3]) of 31 nM, an IC50 (Pfeiffer) of 65 nM and an IC50 (Polycomb protein EED [5]) of 180 nM. For the same compound, the Ki (Polycomb protein EED [1]) was 1 nM and the CL free (Liver) was 1100 L/h/kg.

With `Cc1nc2ncccn2c1CN1C[C@H](c2cn(C)c3ccccc23)[C@@H](N(C)C)C1` (racemic) the Ki (Polycomb protein EED [1]) was over 50000 nM.

In the case of `CN(C)[C@H]1CN([C@H]2CCc3ncccc32)C[C@@H]1c1cn(C)c2ccccc12` (racemic), the Ki (Polycomb protein EED [1]) is reported as 260 nM.

For `CN(C)[C@H]1CN(Cc2c(F)cccc2Br)C[C@@H]1C1CCOCC1` (racemic), the Ki (Polycomb protein EED [1]) was 59 nM.

`Cc1cccc(F)c1CN1C[C@H](c2ccc(C(=O)N(C)C)cc2)[C@@H](N(C)C)C1` (racemic) showed a Ki (Polycomb protein EED [1]) of 18 nM and a CL free (Liver) of 97 L/h/kg.

Work on `CN(C)[C@H]1CN(C2CCc3cccc(F)c32)C[C@@H]1C1CCN(c2ccc(C(N)=O)cn2)CC1` (mixture of isomers) yielded an IC50 (Polycomb protein EED [3]) of 230 nM, an IC50 (Pfeiffer) of 130 nM and an IC50 (Polycomb protein EED [5]) of 280 nM. It also gave a Ki (Polycomb protein EED [1]) of 0.45 nM and a CL free (Liver) of 120 L/h/kg.

`CN(C)C(=O)c1cccc2c([C@H]3CN(Cc4c(F)cccc4Br)C[C@@H]3N(C)C)cn(C)c12` gave a Ki (Polycomb protein EED [1]) of 23 nM.

`CN(C)[C@H]1CN(Cc2c(F)cccc2Br)C[C@@H]1C1CCCCC1` (racemic) showed a Ki (Polycomb protein EED [1]) of 230 nM.

With `CN(C)[C@H]1CN(Cc2ccccc2F)C[C@@H]1c1cn(C)c2ccccc12` (racemic) the Ki (Polycomb protein EED [1]) was 330 nM and the CLint scaled at 0.5 µM [2] was over 1000 L/h/kg.

Work on `CN(C)[C@H]1CN(Cc2c(F)cccc2Br)C[C@@H]1C1CC1` (racemic) yielded a Ki (Polycomb protein EED [1]) of 71 nM.

`CN(C)[C@H]1CN(Cc2nccn2C)C[C@@H]1c1cn(C)c2ccccc12` (racemic) gave a Ki (Polycomb protein EED [1]) of over 50000 nM.

For `COc1ccccc1CN1C[C@H](c2cn(C)c3ccccc23)[C@@H](N(C)C)C1` (racemic), the CLint scaled at 0.5 µM [2] was over 1000 L/h/kg.

Compound `C[C@H]1CN(Cc2c(F)cccc2Br)C[C@@H]1N(C)C` (racemic) has a Ki (Polycomb protein EED [1]) of 380 nM.

Compound `CN(C)[C@H]1CN([C@@H]2CCc3cccc(F)c32)C[C@@H]1c1cn(C)c2ccccc12` has a Ki (Polycomb protein EED [1]) of 129 nM and a CLint scaled at 0.5 µM [2] of over 1000 L/h/kg.

For `Cc1cccc(F)c1CN1C[C@H](c2ccc(-c3cnn(CC(N)=O)c3)cc2)[C@@H](N(C)C)C1` (racemic), the Ki (Polycomb protein EED [1]) was 2.6 nM and the CL free (Liver) was 225 L/h/kg.

For `CN(C)[C@H]1CN(Cc2c(F)cccc2Br)C[C@@H]1c1ccccc1` (racemic), the Ki (Polycomb protein EED [1]) was 78 nM.

In the case of `CN(C)[C@H]1CN([C@H]2CCc3ccccc32)C[C@@H]1c1cn(C)c2ccccc12` (racemic), the Ki (Polycomb protein EED [1]) is reported as 45 nM.

With `CCn1cc(CN2C[C@H](c3cn(C)c4ccccc34)[C@@H](N(C)C)C2)c(C)n1` (racemic) the Ki (Polycomb protein EED [1]) was over 50000 nM.

For `CN(C)[C@H]1CN(Cc2c(F)cccc2Cl)C[C@@H]1c1cn(C)c2ccccc12` (racemic), the IC50 (Polycomb protein EED [3]) was 6900 nM, the IC50 (Pfeiffer) was 3300 nM and the Papp [4] was 1 to 3 ×10⁻⁶ cm/s. The IC50 (Polycomb protein EED [5]) was over 10000 nM, the Ki (Polycomb protein EED [1]) was 53 nM and the CLint scaled at 0.5 µM [2] was over 1000 L/h/kg.

`Cc1cccc(F)c1CN1C[C@H](C2CCN(c3cnc(C(N)=O)cn3)CC2)[C@@H](N(C)C)C1` (racemic) showed a Ki (Polycomb protein EED [1]) of 0.65 nM.

`CN(C)[C@H]1CN(Cc2ccn3ccnc3c2)C[C@@H]1c1cn(C)c2ccccc12` (racemic) gave a Ki (Polycomb protein EED [1]) of over 50000 nM.

For `Cc1cccc(F)c1CN1C[C@H](c2cn(CC(=O)N(C)C)c3ncccc23)[C@@H](N(C)C)C1` (racemic), the Ki (Polycomb protein EED [1]) was 5.3 nM and the CL free (Liver) was 276 L/h/kg.

For `Cc1cccc(F)c1CN1C[C@H](c2ccc(N3CCN(c4ccccn4)CC3)cc2)[C@@H](N(C)C)C1` (racemic), the Ki (Polycomb protein EED [1]) was 2.1 nM and the CL free (Liver) was 9900 L/h/kg.

`CN(C)[C@H]1CN([C@H]2COc3cccc(F)c32)C[C@@H]1c1cn(C)c2ccccc12` showed a Ki (Polycomb protein EED [1]) of 610 nM.
